According to ChEMBL document CHEMBL1121561, “Synthesis and antineoplastic activity of a novel series of phosphoramide mustard analogues of pyrimidine deoxyribonucleosides” (1980):
Activity calls are given as the source filed them. No cut-off for these calls is given here.

Experiments:
L1210 [1] = experiment: Compound was tested in vitro for its inhibition against replication of L1210 neoplastic cells; Inactive; assay type: functional, cell-based; conditions: Mus musculus
L1210 [2] = experiment: Compound was tested in vitro for its inhibition against replication of L1210 neoplastic cells; assay type: functional; conditions: Mus musculus, read-out: ID50 (the source's name)

Compound	ID50 (L1210 [1])	IC50 (L1210 [2]) [µM]
Cc1cn(C2CC3NP(=O)(N(CCCl)CCCl)NCC3O2)c(=O)[nH]c1=O (stereo not given)	inactive	
Cc1cn(C2CC3OP(=O)(N(CCCl)CCCl)N(C)CC3O2)c(=O)[nH]c1=O (stereo not given)		15
O=c1[nH]c(=O)n(C2CC3OP(=O)(N(CCCl)CCCl)NCC3O2)cc1I (stereo not given)		14
Cc1cn(C2CC3OP(=O)(N(CCCl)CCCl)NCC3O2)c(=O)[nH]c1=O (stereo not given)		12
O=P1(N(CCCl)CCCl)NCCCO1 (stereo not given)	inactive	
